In patent US12559529B2, “NPY2 receptor agonists” (Boehringer Ingelheim International GmbH, priority 2019, dated 2026):
*1 amine or outer side, *2 acyl side, *3 side chain or, on linkers, in order; H or OH if unused. Where a SMILES comes first, the peptide text is derived from it. Side-chain parts run from the residue outwards. The star is where a group is joined. C18 diacid = O=C(O)CCCCCCCCCCCCCCCCC(=O)*; γGlu = O=C(O)[C@H](CCC(=O)[*:2])N[*:1]; Isovaleryl = CC(C)CC(=O)*; AEEA = NCCOCCOCC(=O)O

Target: T1, Human Neuropeptide Y2 Receptor (Homo sapiens, UniProt P49146)
T1 construct: purchased CHEMICON HTS066M
T1 sequence (P49146 1-381): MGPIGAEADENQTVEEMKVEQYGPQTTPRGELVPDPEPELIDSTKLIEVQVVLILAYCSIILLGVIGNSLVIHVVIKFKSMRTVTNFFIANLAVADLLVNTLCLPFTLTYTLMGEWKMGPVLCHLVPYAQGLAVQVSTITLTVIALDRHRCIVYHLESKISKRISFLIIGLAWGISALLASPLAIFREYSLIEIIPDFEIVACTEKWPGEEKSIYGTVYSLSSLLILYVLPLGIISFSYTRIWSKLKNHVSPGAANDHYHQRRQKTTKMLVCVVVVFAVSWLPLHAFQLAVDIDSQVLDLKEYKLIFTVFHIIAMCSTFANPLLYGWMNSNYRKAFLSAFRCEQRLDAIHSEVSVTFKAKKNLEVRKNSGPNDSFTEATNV
Assay: Radioligand binding competition assay (RLB)
Conditions: Table 3; human 125I-PYY (1-36) 0.02 nM, Y2 receptor membranes; read-out: Ki
How it was run: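 Competition binding at commercial human NPY Y2 membrane preparations, 0.5 μg protein per well, 2 h incubation at room temperature. Bound and free ligand were separated on GF/C filters and counted; IC50 was fitted by nonlinear regression.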

SMILES	Ki
CC(C)CC(=O)N[C@@H](C)C(=O)N1CCC[C@H]1C(=O)N[C@@H](CCC(=O)O)C(=O)N[C@@H](CCCCNC(=O)COCCOCCNC(=O)COCCOCCNC(=O)CC[C@H](NC(=O)CCCCCCCCCCCCCCCCC(=O)O)C(=O)O)C(=O)N1CCC[C@H]1C(=O)N[C@@H](CCC(=O)O)C(=O)N[C@@H](CCC(=O)O)C(=O)N[C@@H](CCC(=O)O)C(=O)N[C@H](C(=O)N[C@@H](CO)C(=O)N1CCC[C@H]1C(=O)N[C@@H](CCC(=O)O)C(=O)N[C@@H](CCC(=O)O)C(=O)N[C@@H](CC(C)C)C(=O)N[C@@H](CCC(N)=O)C(=O)N[C@@H](CCCNC(=N)N)C(=O)N[C@@H](Cc1ccc(O)cc1)C(=O)N[C@@H](Cc1ccc(O)cc1)C(=O)N[C@H](C(=O)N[C@@H](CO)C(=O)N[C@@H](CC(C)C)C(=O)N[C@@H](CCCNC(=N)N)C(=O)N[C@@H](Cc1c[nH]cn1)C(=O)N[C@@H](Cc1ccc(O)cc1)C(=O)N[C@@H](Cc1ccc(O)cc1)C(=O)N[C@@H](CC(N)=O)C(=O)N[C@@H](Cc1c[nH]c2ccccc12)C(=O)N[C@@H](CC(C)C)C(=O)N[C@H](C(=O)N[C@@H](CCCNC(=N)N)C(=O)N[C@@H](CCC(N)=O)C(=O)N[C@@H](CCCNC(=N)N)C(=O)N[C@@H](Cc1ccc(O)cc1)C(N)=O)[C@@H](C)O)C(C)C)[C@@H](C)O [Compound 213, N{alpha-4}-(3-methylbutanoyl)-N{epsilon-7}-[2-(2-{2-[2-(2-{2-[(4S)-4-carboxy-4-(17-carboxyheptadecanamido)butanamido]ethoxy}ethoxy)acetamido]ethoxy}ethoxy)acetamido]-[4A,7K,9E,11E,12T,18Q,22V,28Y,30W,31L]hPYY (4-36)] (Isovaleryl-APEK([AEEA-AEEA-γGlu-C18 diacid])PEEETSPEELQRYYVSLRHYYNWLTRQRY-NH2)	6.54 nM
CC(C)CC(=O)N[C@@H](C)C(=O)N1CCC[C@H]1C(=O)N[C@@H](CCC(=O)O)C(=O)N[C@@H](CCCCNC(=O)COCCOCCNC(=O)COCCOCCNC(=O)CC[C@H](NC(=O)CCCCCCCCCCCCCCCCC(=O)O)C(=O)O)C(=O)N1CCC[C@H]1C(=O)N[C@@H](CCC(=O)O)C(=O)N[C@@H](CCC(=O)O)C(=O)N[C@@H](CC(=O)O)C(=O)N[C@@H](C)C(=O)N[C@@H](CO)C(=O)N1CCC[C@H]1C(=O)N[C@@H](C)C(=O)N[C@@H](CCC(=O)O)C(=O)N[C@@H](CC(C)C)C(=O)N[C@@H](CCC(N)=O)C(=O)N[C@@H](CCCNC(=N)N)C(=O)N[C@@H](Cc1ccc(O)cc1)C(=O)N[C@@H](Cc1ccc(O)cc1)C(=O)N[C@H](C(=O)N[C@@H](CCC(=O)O)C(=O)N[C@@H](CC(C)C)C(=O)N[C@@H](CCCNC(=N)N)C(=O)N[C@@H](Cc1c[nH]cn1)C(=O)N[C@@H](Cc1ccc(O)cc1)C(=O)N[C@@H](Cc1ccc(O)cc1)C(=O)N[C@@H](CC(N)=O)C(=O)N[C@@H](Cc1c[nH]c2ccccc12)C(=O)N[C@@H](CC(C)C)C(=O)N[C@H](C(=O)N[C@@H](CCCNC(=N)N)C(=O)N[C@@H](CCC(N)=O)C(=O)N[C@@H](CCCNC(=N)N)C(=O)N[C@@H](Cc1ccc(O)cc1)C(N)=O)[C@@H](C)O)C(C)C [Compound 215, N{alpha-4}-(3-methylbutanoyl)-N{epsilon-7}-[2-(2-{2-[2-(2-{2-[(4S)-4-carboxy-4-(17-carboxyheptadecanamido)butanamido]ethoxy}ethoxy)acetamido]ethoxy}ethoxy)acetamido]-[4A,7K,9E,15A,18Q,22V,23E,28Y,30W,31L]hPYY (4-36)]	0.48 nM
CC(C)CC(=O)N[C@@H](C)C(=O)N1CCC[C@H]1C(=O)N[C@@H](C)C(=O)N[C@@H](CCCCNC(=O)COCCOCCNC(=O)COCCOCCNC(=O)CC[C@H](NC(=O)CCCCCCCCCCCCCCCCC(=O)O)C(=O)O)C(=O)N1CCC[C@H]1C(=O)N[C@@H](CCC(=O)O)C(=O)N[C@@H](CCC(=O)O)C(=O)N[C@@H](CC(=O)O)C(=O)N[C@@H](C)C(=O)N[C@@H](CO)C(=O)N1CCC[C@H]1C(=O)N[C@@H](CCC(=O)O)C(=O)N[C@@H](CCC(=O)O)C(=O)N[C@@H](CC(C)C)C(=O)N[C@@H](CCC(=O)O)C(=O)N[C@@H](CCC(N)=O)C(=O)N[C@@H](Cc1ccc(O)cc1)C(=O)N[C@@H](Cc1ccc(O)cc1)C(=O)N[C@H](C(=O)N[C@@H](CO)C(=O)N[C@@H](CC(C)C)C(=O)N[C@@H](CCCNC(=N)N)C(=O)N[C@@H](Cc1c[nH]cn1)C(=O)N[C@@H](Cc1ccc(O)cc1)C(=O)N[C@@H](Cc1ccc(O)cc1)C(=O)N[C@@H](CC(N)=O)C(=O)N[C@@H](Cc1c[nH]c2ccccc12)C(=O)N[C@@H](CC(C)C)C(=O)N[C@H](C(=O)N[C@@H](CCCNC(=N)N)C(=O)N[C@@H](CCC(N)=O)C(=O)N[C@@H](CCCNC(=N)N)C(=O)N[C@@H](Cc1ccc(O)cc1)C(N)=O)[C@@H](C)O)C(C)C [Compound 216, N{alpha-4}-(3-methylbutanoyl)-N{epsilon-7}-[2-(2-{2-[2-(2-{2-[(4S)-4-carboxy-4-(17-carboxyheptadecanamido)butanamido]ethoxy}ethoxy)acetamido]ethoxy}ethoxy)acetamido]-[4A,6A,7K,9E,18E,19Q,22V,28Y,30W,31L]hPYY (4-36)] (Isovaleryl-APAK([AEEA-AEEA-γGlu-C18 diacid])PEEDASPEELEQYYVSLRHYYNWLTRQRY-NH2)	0.93 nM
CC(C)CC(=O)N[C@@H](C)C(=O)N1CCC[C@H]1C(=O)N[C@@H](CCC(=O)O)C(=O)N[C@@H](CCCCNC(=O)COCCOCCNC(=O)COCCOCCNC(=O)CC[C@H](NC(=O)CCCCCCCCCCCCCCCCC(=O)O)C(=O)O)C(=O)N1CCC[C@H]1C(=O)N[C@@H](CCC(=O)O)C(=O)N[C@@H](CCC(=O)O)C(=O)N[C@@H](CC(=O)O)C(=O)N[C@@H](CO)C(=O)N[C@@H](CO)C(=O)N1CCC[C@H]1C(=O)N[C@@H](CCC(=O)O)C(=O)N[C@@H](CCC(=O)O)C(=O)N[C@@H](CC(C)C)C(=O)N[C@@H](CCC(N)=O)C(=O)N[C@@H](CCCNC(=N)N)C(=O)N[C@@H](Cc1ccc(O)cc1)C(=O)N[C@@H](Cc1ccc(O)cc1)C(=O)N[C@H](C(=O)N[C@@H](C)C(=O)N[C@@H](CC(C)C)C(=O)N[C@@H](CCCNC(=N)N)C(=O)N[C@@H](Cc1c[nH]cn1)C(=O)N[C@@H](Cc1ccc(O)cc1)C(=O)N[C@@H](Cc1ccc(O)cc1)C(=O)N[C@@H](CC(N)=O)C(=O)N[C@@H](Cc1c[nH]c2ccccc12)C(=O)N[C@@H](CC(C)C)C(=O)N[C@H](C(=O)N[C@@H](CCCNC(=N)N)C(=O)N[C@@H](CCC(N)=O)C(=O)N[C@@H](CCCNC(=N)N)C(=O)N[C@@H](Cc1ccc(O)cc1)C(N)=O)[C@@H](C)O)C(C)C [Compound 218, N{alpha-4}-(3-methylbutanoyl)-N{epsilon-7}-[2-(2-{2-[2-(2-{2-[(4S)-4-carboxy-4-(17-carboxyheptadecanamido)butanamido]ethoxy}ethoxy)acetamido]ethoxy}ethoxy)acetamido]-[4A,7K,9E,12S,18Q,22V,23A,28Y,30W,31L]hPYY (4-36)]	1.49 nM
CC(C)CC(=O)N[C@@H](C)C(=O)N1CCC[C@H]1C(=O)N[C@@H](CCC(=O)O)C(=O)N[C@@H](CCCCNC(=O)COCCOCCNC(=O)COCCOCCNC(=O)CC[C@H](NC(=O)CCCCCCCCCCCCCCCCC(=O)O)C(=O)O)C(=O)N1CCC[C@H]1C(=O)N[C@@H](CCC(=O)O)C(=O)N[C@@H](CCC(=O)O)C(=O)N[C@@H](CCC(=O)O)C(=O)N[C@@H](C)C(=O)N[C@@H](C)C(=O)N1CCC[C@H]1C(=O)N[C@@H](CCC(=O)O)C(=O)N[C@@H](CCC(=O)O)C(=O)N[C@@H](CC(C)C)C(=O)N[C@@H](CCC(N)=O)C(=O)N[C@@H](CCCNC(=N)N)C(=O)N[C@@H](Cc1ccc(O)cc1)C(=O)N[C@@H](Cc1ccc(O)cc1)C(=O)N[C@H](C(=O)N[C@@H](CO)C(=O)N[C@@H](CC(C)C)C(=O)N[C@@H](CCCNC(=N)N)C(=O)N[C@@H](Cc1c[nH]cn1)C(=O)N[C@@H](Cc1ccc(O)cc1)C(=O)N[C@@H](Cc1ccc(O)cc1)C(=O)N[C@@H](CC(N)=O)C(=O)N[C@@H](Cc1c[nH]c2ccccc12)C(=O)N[C@@H](CC(C)C)C(=O)N[C@H](C(=O)N[C@@H](CCCNC(=N)N)C(=O)N[C@@H](CCC(N)=O)C(=O)N[C@@H](CCCNC(=N)N)C(=O)N[C@@H](Cc1ccc(O)cc1)C(N)=O)[C@@H](C)O)C(C)C [Compound 219, N{alpha-4}-(3-methylbutanoyl)-N{epsilon-7}-[2-(2-{2-[2-(2-{2-[(4S)-4-carboxy-4-(17-carboxyheptadecanamido)butanamido]ethoxy}ethoxy)acetamido]ethoxy}ethoxy)acetamido]-[4A,7K,9E,11E,13A,18Q,22V,28Y,30W,31L]hPYY (4-36)]	7.6 nM
